This is an account of results in patent US11147781B2, “Methods for alleviating statin myopathy” (priority 2014, dated 2021).

SMILES strings stand for the structures. Read-outs that look alike come from different tables or passages of the source.

In data set [1] the test system is patients with statin-induced myopathy (SIM). In kind it is in vivo, human. The arrangement: triglycerides: unit not given here. Here is the method: A clinical study was conducted to evaluate the effects of HMB on patients with statin-induced myopathy (SIM). A total of eighteen patients were evaluated for the study with informed written consent obtained. Of the eighteen patients, fourteen (14) ultimately qualified as having true statin myalgia and were enrolled in the study. All patients enrolled were under the care of a board certified cardiologist.
A summary of the enrolled patients and their outcomes is as follows: • 1. All 14 had type 2a or mixed hyperlipidemia. • 2. All 14 had been treated with multiple statin agents, in each case withdrawing from the statin agent due to myalgia/myopathy. • 3. Of the 14 patients enrolled, 4 had elevated CPKs (creatine phosphokinase, a biomarker for myositis/rhabdomyolysis) secondary to SIM. • 4. Five of the 14 patients had undergone prior percutaneous coronary intervention with stents. • 5. One of the 14 patients had undergone prior coronary bypass surgery. • 6. Four of the 14 patients had angiographically documented moderate coronary artery disease not requiring percutaneous coronary intervention (PCI)/coronary bypass. • 7. Four of the 18 patients were disqualified due to the following: • Patient's leg myalgia was secondary to angiographically proven peripheral vascular disease, not SIM and symptoms were consistent with this diagnosis. • Patient's unilateral leg pain was secondary to neuropathy, not SIM. • Patient complained of GI upset on combined statin+3-hydroxy 3-methybutyrate and medication was discontinued. […] All 14 qualified patients remained on combination statin (in some cases with Zetia to achieve target) plus HMB therapy after the initial duration of the study. As noted, of those who had previously discontinued statin therapy, all had been tried on multiple statin agents without success. • 9. Follow up was conducted with all patients including out-patient visits and phone conversation. • 10.
The free acid form was used in one patient who experienced major CPK elevations (900-1000 IU/L range) and disabling myalgia on statins.
For this study, patients were evaluated using multiple laboratories with variable lab normal ranges, which are included. In the patient population as a whole, the full spectrum of SIM is presented, including statin myalgia […] CPK elevation (myositis or rhabdomyolysis depending on severity), elevation of CPK without myalgia, post-statin elevation of CPK with and without pain, post-statin myalgia without CPK elevation, and, finally, statin-induced muscle weakness without myalgia. Also represented were other statin-induced side effects such as short-term memory loss and glucose intolerance.

In another data set the test system is acute rhabdomyolysis. The experiment in a line: In-patient treatment of acute rhabdomyolysis with HMB. Type of data set: in vivo, human. The following applies: HMB free acid (gel form) 6 g twice daily for 3 days, within 3 days. The source says: HMB administration is used to treat acute rhabdomyolysis in an in-patient setting.
Acute rhabdomyolysis is a rare but extreme and potentially life-threatening disorder that can occur in all groups in a setting of dehydration, trauma, and in younger age groups, intense exercise. […] At this time there is no known method of reversing rhabomyolysis apart from bed rest and hydration.
Protocol: measure patient's CPK; if value exceeds 10 times the upper limit of normal (200 IU/L, depending on laboratory-specific established normal range), initiate the following: • 1. Admit to ICU; • 2. Initiate IV 0.9% saline at 165 ml/hour; • 3. Initiate HMB free acid (gel form), dose 6 g twice daily for 3 days; • 4. Lab: CPK, BUN, creatinine, glucose and electrolytes every 12 hours for 3 days.

For data set [2] the following is noted: free acid form versus calcium monohydrate form; cited from earlier work.
[3] abbreviates: Patient A-1, 3 months, Crestor 10 mg daily + 2 g BID.
Setting [4] is: Patient F-6, atorvastatin 40 mg + Zetia 10 mg + 2 g BID, 2-month follow-up.

As to `CC(C)(O)CC(=O)O` [HMB free acid], the CPK in data set [1] (Patient D-4, free acid 2 gelcaps TID (3 g daily), after ten days, before 378) is 257 IU/L; with acute rhabdomyolysis, “below 200 IU/L”. The patient-reported state entry in data set [1] (Patient D-4, free acid 3 g daily, ten days) is on record as “felt better”. Moreover, the fasting blood glucose in data set [1] (Patient D-4, free acid 3 g daily, ten days, before >200) was found to be 100 mg %. Besides, the symptoms entry is “completely symptom-free” in data set [1] (Patient O-15, converted to free acid 1 g TID, three months post-enrollment) and “resolution in symptoms” in data set [1] (free acid gel cap, one patient (D-4), improvement over calcium monohydrate form). The “change in CPK” value in data set [1] (free acid gel cap, one patient (D-4) with major CPK elevations on statins) is “significant decrease”. In data set [2], the bioavailability entry is listed as “more bioavailable”.
In the case of `CCC(C)(C)C(=O)O[C@H]1C[C@@H](C)C=C2C=C[C@H](C)[C@H](CC[C@@H]3C[C@@H](O)CC(=O)O3)[C@H]21` [simvastatin, reference compound], the “CPK under statin (severe rhabdomyolysis)” value in data set [1] (human, in vivo) is listed as 900-1000 IU/L.
For `CC(C)c1nc(N(C)S(C)(=O)=O)nc(-c2ccc(F)cc2)c1/C=C/[C@@H](O)C[C@@H](O)CC(=O)O` [Crestor®, rosuvastatin, reference compound], in data set [1] (human, in vivo), the CPK under statin is recorded as 320 IU/L.
Turning to `CC(C)(O)CC(=O)[O-].CC(C)(O)CC(=O)[O-].[Ca+2]` [calcium HMB monohydrate], the CPK in data set [1] (Patient A-1, 2 g BID, 9 days later, before HMB 242, range 26-192) is 87 IU/L; in data set [1] (setting [3]) it was 110 IU/L; in data set [1] (Patient B-2, Vytorin 10/40 + 2 g BID, 50 days, lab normal range 44-196), 173 IU/L; in data set [1] (Patient D-4, Crestor 20 mg + Zetia 10 mg + 2 g BID, 37 days, before 705, range 26-192), 277 IU/L; in data set [1] (Patient D-4, five months later, diabetes uncontrolled), 378 IU/L; in data set [1] (Patient E-5, after HMB treatment 2 g BID, range 39-308), 110 IU/L. For the same compound, the CPK in data set [1] (Patient G-7, statin + 2 g BID, four weeks, range 29-168) was determined as 39 IU/L; in data set [1] (Patient K-11, Crestor 20 mg daily + 2 g BID, 47 days, before 282 (29-168)) it was 191 IU/L; in data set [1] (Patient L-12, two months, range 29-168) it was 87 IU/L; in data set [1] (Patient M-13, Crestor + 2 g BID, four months, before 320, range 39-308) it was 210 IU/L; in data set [1] (Patient O-15, 2 months post-enrollment, 5 days/week weight program, before 274 (30-200)), 310 IU/L. Also, the “time to complete resolution of all pain” value in data set [1] (Patient A-1, 2 g BID, post-statin myositis, before re-introducing statin) worked out at 3 days. For the same compound, the LDL stood at 72 mg/dL in data set [1] (setting [3]); 110 mg % in data set [1] (Patient B-2, Vytorin 10/40 + 2 g BID, 50 days, before 168); 49 in data set [1] (Patient D-4, Crestor 20 mg + Zetia 10 mg + 2 g BID, 37 days, before >200 mg %); 43 in data set [1] (Patient F-6, atorvastatin 40 mg + Zetia 10 mg + 2 g BID, repeat); 108 in data set [1] (Patient G-7, statin + 2 g BID, four weeks, reduced from 169); 139 in data set [1] (Patient K-11, Crestor 20 mg daily + 2 g BID, 47 days, before 282). The LDL worked out at 100 in data set [1] (Patient L-12, Crestor 5 mg daily + 2 g BID, two months, before 122); 114 in data set [1] (Patient M-13, Crestor + 2 g BID, four months, before 244); 53 in data set [1] (Patient O-15, 2 months post-enrollment, before 30). Further, the symptoms entry in data set [1] (setting [3]) is “asymptomatic”; in data set [1] (Patient B-2, six months later, on Vytorin) it was “completely asymptomatic”; in data set [1] (Patient C-3, Crestor 10 mg daily + 2 g BID, three months) it was “completely symptom free”; in data set [1] (Patient G-7, statin resumed + 2 g BID, approximately four weeks), “free of all symptoms of myalgia and muscle weakness”; in data set [1] (Patient H-8, 2 g BID combination, one month) it was “completely asymptomatic”; in data set [1] (Patient K-11, exercises near-daily), “pain-free”. The symptoms result in data set [1] (Patient L-12, two months) is listed as “pain-free”. For the same compound, the myalgia result in data set [1] (Patient D-4, Crestor 20 mg + Zetia 10 mg + 2 g BID, 37 days) is listed as “resolved except for very mild discomfort climbing stairs”; in data set [1] (setting [4]), “completely resolved”; in data set [1] (Patient M-13, follow-up five months after enrollment), “All myalgia had resolved”. For the same compound, the bilateral calf myalgia result in data set [1] (Patient E-5, 2 g BID, post-statin myalgia) is “resolved rapidly and completely”. In data set [1] (setting [4]), the “short term memory loss” value is on record as “improved”. Further, the bilateral thigh pain result in data set [1] (Patient J-10, Lipitor 10 mg daily + 2 g BID, one month) is recorded as “complete resolution of bilateral thigh pain”. Further, the CPK reduction in data set [1] (Patient K-11, 47 days) is 32%; in data set [1] (Patient M-13, four months), 34%. Besides, the LDL reduction turned out to be 50% in data set [1] (Patient K-11, 47 days) and 53% in data set [1] (Patient M-13, four months). Besides, the triglycerides in data set [1] (Patient L-12, Crestor 5 mg daily + 2 g BID, two months, before 261) was 193. Also, the muscle weakness entry in data set [1] (Patient N-14, statin continued + 2 g BID, 13 days) is reported as “symptoms of muscle weakness had resolved”. The quadriceps/thigh pain result in data set [1] (Patient O-15, combined statin therapy + 2 g BID, four weeks) is listed as “complete resolution of all quadriceps/thigh pain”. In addition, the thigh pain entry in data set [1] (Patient P-16, simvastatin + 2 g BID, sixteen days, persistent groin stiffness) is “no longer had any thigh pain”.
